The values that follow come from ChEMBL document CHEMBL1126306, “Inactivation of calpain by peptidyl fluoromethyl ketones” (J Med Chem, 1992).

The data set can be described thus: The rate of inactivation expressed as second-order rate constant is independent of concentration. Conditions: for kinact/KI: read-out: k2.

Where a SMILES comes first, the peptide text is derived from it.

Turning to `C[C@H](NC(=O)[C@H](Cc1ccc(O)cc1)NC(=O)OCc1ccccc1)C(=O)CF`, the kinact/KI was 7.4e+06 M⁻¹ s⁻¹. Consider `CC(C)C[C@H](NC(=O)OCc1ccccc1)C(=O)N[C@@H](Cc1ccc(O)cc1)C(=O)CF` (HELM PEPTIDE1{[O=C(OCc1ccccc1)[*:2]].L.Y.[FC[*:1]]}$$$$V2.0), for which the k2 was determined as 12000 M⁻¹ s⁻¹ and the kinact/KI turned out to be 17000 M⁻¹ s⁻¹.
